Laboratory results published in US20120214862A1, “MODULATION OF FACTOR 7 EXPRESSION” (ISIS Pharmaceuticals, Inc., priority 2009, published 2012).
In the oligonucleotide strings, read from the 5' end, every base follows the letter of its sugar. An asterisk marks phosphorothioate; unmarked linkages are phosphodiester. Other units and linkages are bracketed, terminal groups are in braces. A string of capitals states the bases alone. e = 2'-O-(2-methoxyethyl) (MOE); [5mC] = 5-methylcytosine; d = 2'-deoxy (DNA)

These substances were tested on human Factor 7 mRNA (assay: Antisense inhibition of human Factor 7 mRNA in HepB3 cells, lipofectin, 50 nM, real-time RT-PCR). Settings: HepB3 cells; gapmers targeted to nucleobases 11830 to 11869 of SEQ ID NO: 1 (Table 9).
Format: cell-based
Summary of the method: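 Seeding density was 4,000 cells per well. Following roughly 24 hours of oligonucleotide treatment, RNA was extracted and Factor 7 message quantified using the RTS 2927 primer probe set. Levels were corrected for RIBOGREEN® total RNA and expressed against untreated controls.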
“422238 (antisense eA*e[5mC]*dA*dA*dT*dG*dG*dT*d[5mC]*dA*dG*dG*dG*d[5mC]*dT*eG*eG*eT*eT*eT) [compound 422238]” was tested, and the “% Inhibition of human Factor 7 mRNA levels” value (“% Inhibition” for short) was 64%.
In the case of “422239 (antisense eG*eA*d[5mC]*dA*dA*dT*dG*dG*dT*d[5mC]*dA*dG*dG*dG*d[5mC]*eT*eG*eG*eT*eT) [compound 422239]”, the “% Inhibition” value is reported as 67%.
For “422240 (antisense eA*eG*dA*d[5mC]*dA*dA*dT*dG*dG*dT*d[5mC]*dA*dG*dG*dG*e[5mC]*eT*eG*eG*eT) [compound 422240]”, the “% Inhibition” value was 66%.
For “422241 (antisense eG*eA*dG*dA*d[5mC]*dA*dA*dT*dG*dG*dT*d[5mC]*dA*dG*dG*eG*e[5mC]*eT*eG*eG) [compound 422241]”, the “% Inhibition” value was 61%.
For “422242 (antisense eG*eG*dA*dG*dA*d[5mC]*dA*dA*dT*dG*dG*dT*d[5mC]*dA*dG*eG*eG*e[5mC]*eT*eG) [compound 422242]”, the “% Inhibition” value was 64%.
For “422243 (antisense eA*eG*dG*dA*dG*dA*d[5mC]*dA*dA*dT*dG*dG*dT*d[5mC]*dA*eG*eG*eG*e[5mC]*eT) [compound 422243]”, the “% Inhibition” value was 62%.
With “422244 (antisense eG*eA*dG*dG*dA*dG*dA*d[5mC]*dA*dA*dT*dG*dG*dT*d[5mC]*eA*eG*eG*eG*e[5mC]) [compound 422244]” the “% Inhibition” value was 55%.
In the case of “422245 (antisense eT*eG*dA*dG*dG*dA*dG*dA*d[5mC]*dA*dA*dT*dG*dG*dT*e[5mC]*eA*eG*eG*eG) [compound 422245]”, the “% Inhibition” value is reported as 24%.
In the case of “422246 (antisense e[5mC]*eT*dG*dA*dG*dG*dA*dG*dA*d[5mC]*dA*dA*dT*dG*dG*eT*e[5mC]*eA*eG*eG) [compound 422246]”, the “% Inhibition” value is reported as 46%.
“422247 (antisense eG*e[5mC]*dT*dG*dA*dG*dG*dA*dG*dA*d[5mC]*dA*dA*dT*dG*eG*eT*e[5mC]*eA*eG) [compound 422247]” was tested, and the “% Inhibition” value was 36%.
For “422248 (antisense eG*eG*d[5mC]*dT*dG*dA*dG*dG*dA*dG*dA*d[5mC]*dA*dA*dT*eG*eG*eT*e[5mC]*eA) [compound 422248]”, the “% Inhibition” value was 60%.
With “422249 (antisense eT*eG*dG*d[5mC]*dT*dG*dA*dG*dG*dA*dG*dA*d[5mC]*dA*dA*eT*eG*eG*eT*e[5mC]) [compound 422249]” the “% Inhibition” value was 52%.
For “422250 (antisense e[5mC]*eT*dG*dG*d[5mC]*dT*dG*dA*dG*dG*dA*dG*dA*d[5mC]*dA*eA*eT*eG*eG*eT) [compound 422250]”, the “% Inhibition” value was 54%.
With “422251 (antisense eG*e[5mC]*dT*dG*dG*d[5mC]*dT*dG*dA*dG*dG*dA*dG*dA*d[5mC]*eA*eA*eT*eG*eG) [compound 422251]” the “% Inhibition” value was 36%.

Same assay, conditions: HepB3 cells; gapmers targeted to nucleobases 13760 to 13789 of SEQ ID NO: 1 (Table 10)
In the case of “422253 (antisense e[5mC]*e[5mC]*dG*d[5mC]*d[5mC]*dG*dG*d[5mC]*dT*d[5mC]*dT*dG*d[5mC]*dT*d[5mC]*eA*eT*e[5mC]*e[5mC]*e[5mC]) [compound 422253]”, the “% Inhibition” value is reported as 61%.
“422254 (antisense e[5mC]*e[5mC]*d[5mC]*dG*d[5mC]*d[5mC]*dG*dG*d[5mC]*dT*d[5mC]*dT*dG*d[5mC]*dT*e[5mC]*eA*eT*e[5mC]*e[5mC]) [compound 422254]” was tested, and the “% Inhibition” value was 42%.
For “422255 (antisense eA*e[5mC]*d[5mC]*d[5mC]*dG*d[5mC]*d[5mC]*dG*dG*d[5mC]*dT*d[5mC]*dT*dG*d[5mC]*eT*e[5mC]*eA*eT*e[5mC]) [compound 422255]”, the “% Inhibition” value was 30%.
With “422256 (antisense e[5mC]*eA*d[5mC]*d[5mC]*d[5mC]*dG*d[5mC]*d[5mC]*dG*dG*d[5mC]*dT*d[5mC]*dT*dG*e[5mC]*eT*e[5mC]*eA*eT) [compound 422256]” the “% Inhibition” value was 29%.
“422257 (antisense e[5mC]*e[5mC]*dA*d[5mC]*d[5mC]*d[5mC]*dG*d[5mC]*d[5mC]*dG*dG*d[5mC]*dT*d[5mC]*dT*eG*e[5mC]*eT*e[5mC]*eA) [compound 422257]” was tested, and the “% Inhibition” value was 65%.
